Patent US8987473B2, “Ring-fused compound” (Sato Pharmaceutical Co., Ltd., priority 2011, dated 2015)
pIC50: −log10 of the molar value.

Molecular target: human URAT1 (Homo sapiens (Human), UniProt Q96S37)
Test: Test for uric acid transport inhibition using human URAT1 expression cell
Type: cell-based
Conditions: human URAT1 stable expression CHO cell; 14C-labeled uric acid 38 μM final concentration; incorporation at room temperature for 5 minutes; 100% window defined with benzbromarone 100 μM; read-out: URAT1 Inhibitory Activity (IC50)
Procedure: In this Example, it was evaluated whether the Example compound has the URAT1 inhibitory activity.
Human URAT1 full-length cDNA was introduced to an expression vector pcDNA5/FRT/V5-His TOPO (registered trademark) (Invitrogen Corporation). The obtained expression plasmid was introduced to Chinese hamster ovary cell (hereinafter referred to as the CHO cell) by the liposome method using Lipofectamine LTX (Invitrogen), and cultured in a selection medium including hygromycin, whereby to prepare human URAT1 stable expression cell.
The human URAT1 expression CHO cell was cultured using D-MEM/F-12 (1:1) mixed medium including 10% bovine fetal serum and hygromycin at 37° C. in the presence of 5% CO2. The cells were seeded onto a 96 well plate (Corning Incorporated) in 0.8×10^5 cells/well, and after 24 hours, the test for uric acid transport inhibition below was performed.
The medium was removed by aspiration, and then the cells were washed once with an assay buffer including 125 mM of sodium gluconate, 4.8 mM of potassium gluconate, 1.2 mM of potassium dihydrogen phosphate, 1.2 mM of magnesium sulfate, 1.3 mM of calcium gluconate and 5.6 mM of glucose. 50 μL assay buffer including the test compound in various concentrations was added, and further 50 μL assay buffer including a radioactive ligand (uric acid labeled with ^14C; 38 μM final concentration) was added, and incorporation reaction was performed at room temperature for 5 minutes. Immediately after completion of the reaction, the reaction mixture was washed twice with 100 μL ice-cold assay buffer, and 100 μL of 0.1 N sodium hydroxide was added. The reaction mixture was stirred to lyse the cells, and 4 mL Hionic-Fluor (Packard BioScience CO) was added, and then the radioactivity was measured with a liquid scintillation counter (Beckman Coulter, Inc. and Packard BioScience CO).
The radioactivity when each concentration of the test compound was added (uric acid incorporation activity, %) was calculated in which the difference of the radioactivity when the test compound was not added (DMSO added), and the radioactivity when a positive control compound, benzbromarone (known URAT1 inhibitor) was added in 100 μM, was taken as 100%, and the concentration of the test compound when the uric acid incorporation activity was inhibited to 50% (IC50) was obtained.

human URAT1, sequence (Q96S37 whole entry): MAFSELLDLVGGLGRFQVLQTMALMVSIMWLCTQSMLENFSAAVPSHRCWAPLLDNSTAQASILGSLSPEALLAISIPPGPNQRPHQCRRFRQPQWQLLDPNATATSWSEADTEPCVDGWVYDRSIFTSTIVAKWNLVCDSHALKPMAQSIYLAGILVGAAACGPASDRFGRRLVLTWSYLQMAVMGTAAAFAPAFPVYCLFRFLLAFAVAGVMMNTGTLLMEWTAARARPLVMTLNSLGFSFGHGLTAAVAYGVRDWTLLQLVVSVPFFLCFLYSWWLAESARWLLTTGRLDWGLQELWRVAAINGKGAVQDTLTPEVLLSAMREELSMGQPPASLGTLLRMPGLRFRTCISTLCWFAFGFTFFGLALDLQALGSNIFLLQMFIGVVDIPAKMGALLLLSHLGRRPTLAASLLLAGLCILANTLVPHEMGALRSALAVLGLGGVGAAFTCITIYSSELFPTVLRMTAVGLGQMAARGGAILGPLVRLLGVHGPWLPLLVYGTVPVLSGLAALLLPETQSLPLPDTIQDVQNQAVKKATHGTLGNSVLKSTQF

Structure (SMILES)	pIC50
Cc1cn(Cc2cc3c(cc2Cl)OCO3)c2cc(CC(=O)O)ccc12 [Example 88, 2-{1-[(6-chlorobenzo[d][1,3]dioxol-5-yl)methyl]-3-methyl-1H-indole-6-yl}acetic acid]	7.01
CCc1nn(Cc2c(Cl)cccc2Cl)c2cc(-c3nnn[nH]3)ccc12 [Example 182, 1-(2,6-dichlorobenzyl)-3-ethyl-6-(1H-tetrazole-5-yl)-1H-indazole]	7.28
Cc1nn(Cc2c(Cl)cccc2Cl)c2cc(Cc3n[nH]c(=O)o3)ccc12 [Example 136, 5-{[1-(2,6-dichlorobenzyl)-3-methyl-1H-indazole-6-yl]methyl}-1,3,4-oxadiazol-2(3H)-one]	7.47
CCc1nn(Cc2c(Cl)cccc2Cl)c2cc(-c3nnn[nH]3)cnc12 [Example 171, 1-(2,6-dichlorobenzyl)-3-ethyl-6-(1H-tetrazole-5-yl)-1H-pyrazolo[4,3-b]pyridine]	7.28
Cc1cccc(C)c1Cn1nc(Cl)c2ccc(C(=O)O)cc21 [Example 149, 3-chloro-1-(2,6-dimethylbenzyl)-1H-indazole-6-carboxylic acid]	7.28
Cc1nn(Cc2c(Cl)cccc2Cl)c2cc(C(=O)CCC(=O)O)ccc12 [Example 130, 4-[1-(2,6-dichlorobenzyl)-3-methyl-1H-indazole-6-yl]-4-oxobutyric acid]	7.17
CCc1nn(Cc2c(Cl)cccc2Cl)c2cc(CCC(=O)O)ccc12 [Example 145, 3-[1-(2,6-dichlorobenzyl)-3-ethyl-1H-indazole-6-yl]propionic acid]	7.59
Cc1nn(Cc2c(Cl)cccc2Cl)c2cc(C(F)(F)C(=O)O)ccc12 [Example 183, [1-(2,6-dichlorobenzyl)-3-methyl-1H-indazole-6-yl]difluoroacetic acid]	7.82
Cc1nn(Cc2csc3ccc(Cl)cc23)c2cc(CC(=O)O)ccc12 [Example 106, 2-{1-[(5-chlorobenzo[b]thiophene-3-yl)methyl]-3-methyl-1H-indazole-6-yl}acetic acid]	7.26
CCc1nn(Cc2c(Cl)cccc2Cl)c2cc(C(=O)O)cnc12 [Example 167, 1-(2,6-dichlorobenzyl)-3-ethyl-1H-pyrazolo[4,3-b]pyridine-6-carboxylic acid]	7.10
Cc1nn(Cc2c(Cl)cccc2Cl)c2cc(Cc3nnn[nH]3)ccc12 [Example 134, 1-(2,6-dichlorobenzyl)-3-methyl-6-(1H-tetrazole-5-ylmethyl)-1H-indazole]	7.89
Cc1cccc(C)c1Cn1cc(C)c2ccc(CC(=O)O)cc21 [Example 64, 2-[1-(2,6-dimethylbenzyl)-3-methyl-1H-indole-6-yl]acetic acid]	7.66
Cc1cccc(Cl)c1Cn1nc(Cl)c2ncc(-c3nnn[nH]3)cc21 [Example 177, 3-chloro-1-(2-chloro-6-methylbenzyl)-6-(1H-tetrazole-5-yl)-1H-pyrazolo[4,3-b]pyridine]	6.98
Cc1nn(Cc2c(Cl)cccc2Cl)c2cc(CCC(N)=O)ccc12 [Example 132, 3-[1-(2,6-dichlorobenzyl)-3-methyl-1H-indazole-6-yl]propionamide]	6.73
Cc1nn(Cc2cccc(Cl)c2Cl)c2cc(-c3nnn[nH]3)cnc12 [Example 158, 1-(2,3-dichlorobenzyl)-3-methyl-6-(1H-tetrazole-5-yl)-1H-pyrazolo[4,3-b]pyridine]	6.53
Cc1nn(Cc2c(Cl)cccc2C#N)c2cc(CC(=O)O)ccc12 [Example 109, 2-[1-(2-chloro-6-cyanobenzyl)-3-methyl-1H-indazole-6-yl]acetic acid]	6.47
CCc1nn(Cc2c(Cl)cccc2Cl)c2cc(/C=C/C(=O)O)ccc12 [Example 146, (E)-3-[1-(2,6-dichlorobenzyl)-3-ethyl-1H-indazole-6-yl]acrylic acid]	7.28
Cc1nn(Cc2c(Cl)cccc2Cl)c2nc(Cc3nnn[nH]3)ccc12 [Example 152, 1-(2,6-dichlorobenzyl)-3-methyl-6-(1H-tetrazole-5-ylmethyl)-1H-pyrazolo[3,4-b]pyridine]	6.74
Cc1nn(Cc2c(Cl)cccc2Cl)c2cc(C(=O)O)ccc12 [Example 119, 1-(2,6-dichlorobenzyl)-3-methyl-1H-indazole-6-carboxylic acid]	7.19
CCc1nn(Cc2c(Cl)cccc2Cl)c2cc(CC(=O)O)ccc12 [Example 140, 2-[1-(2,6-dichlorobenzyl)-3-ethyl-1H-indazole-6-yl]acetic acid]	7.62
Cc1nn(Cc2c(Cl)cccc2Cl)c2cc(C(O)C(=O)O)ccc12 (stereo not drawn) [Example 128, [1-(2,6-dichlorobenzyl)-3-methyl-1H-indazole-6-yl]hydroxyacetic acid]	6.24
Cc1ccc(C)c(Cn2cc(C)c3ccc(CC(=O)O)cc32)c1 [Example 85, 2-[1-(2,5-dimethylbenzyl)-3-methyl-1H-indole-6-yl]acetic acid]	7.20
Cc1ccc(C)c(Cn2nc(C)c3ncc(-c4nnn[nH]4)cc32)c1 [Example 163, 1-(2,5-dimethylbenzyl)-3-methyl-6-(1H-tetrazole-5-yl)-1H-pyrazolo[4,3-b]pyridine]	6.95
CCc1cn(Cc2c(C)cccc2C)c2cc(C(=O)O)ccc12 [Example 91, 1-(2,6-dimethylbenzyl)-3-ethyl-1H-indole-6-carboxylic acid]	7.37
O=C(O)Cc1ccc2c(C3CC3)nn(Cc3c(Cl)cccc3Cl)c2c1 [Example 148, 2-[3-cyclopropyl-1-(2,6-dichlorobenzyl)-1H-indazole-6-yl]acetic acid]	7.31
Cc1nn(Cc2cccc(Cl)c2Cl)c2cc(C(=O)O)ccc12 [Example 120, 1-(2,3-dichlorobenzyl)-3-methyl-1H-indazole-6-carboxylic acid]	7.04
Cc1cccc(Cl)c1Cn1nc(Cl)c2ncc(C(=O)O)cc21 [Example 174, 3-chloro-1-(2-chloro-6-methylbenzyl)-1H-pyrazolo[4,3-b]pyridine-6-carboxylic acid]	6.83
Cc1nn(Cc2c(Cl)cccc2Cl)c2cc(OCC(=O)O)ccc12 [Example 138, 2-[1-(2,6-dichlorobenzyl)-3-methyl-1H-indazole-6-yloxy]acetic acid]	6.04
Cc1cccc(C)c1Cn1nc(C(C)C)c2ccc(CC(=O)O)cc21 [Example 147, 2-[1-(2,6-dimethylbenzyl)-3-isopropyl-1H-indazole-6-yl]acetic acid]	7.12
Cc1cn(Cc2cccc(Cl)c2Cl)c2cc(CC(=O)O)ccc12 [Example 84, 2-[1-(2,3-dichlorobenzyl)-3-methyl-1H-indole-6-yl]acetic acid]	7.28
